Data on 34 molecules can be found in ChEMBL document CHEMBL5149982, “Development of Potent NEDD8-Activating Enzyme Inhibitors Bearing a Pyrimidotriazole Scaffold” (J Med Chem, 2021).

For test [1], the target named is T1, NEDD8 activating enzyme (Homo sapiens, UniProt Q8TBC4).
T1 sequence (Q8TBC4 whole entry): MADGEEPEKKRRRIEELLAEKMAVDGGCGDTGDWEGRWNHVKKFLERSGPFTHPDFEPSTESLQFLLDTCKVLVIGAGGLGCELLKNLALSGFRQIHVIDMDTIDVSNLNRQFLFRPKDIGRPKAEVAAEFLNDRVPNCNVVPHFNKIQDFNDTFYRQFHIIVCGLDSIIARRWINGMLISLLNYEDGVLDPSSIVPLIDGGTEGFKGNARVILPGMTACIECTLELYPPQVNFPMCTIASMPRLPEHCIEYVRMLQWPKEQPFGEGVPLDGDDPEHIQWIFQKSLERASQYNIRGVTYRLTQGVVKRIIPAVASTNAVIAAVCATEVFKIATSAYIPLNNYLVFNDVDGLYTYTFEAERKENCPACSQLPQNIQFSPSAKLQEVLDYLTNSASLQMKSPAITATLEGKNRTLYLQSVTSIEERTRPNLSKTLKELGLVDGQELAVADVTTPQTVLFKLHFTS
T1 sequence (Q13564 whole entry): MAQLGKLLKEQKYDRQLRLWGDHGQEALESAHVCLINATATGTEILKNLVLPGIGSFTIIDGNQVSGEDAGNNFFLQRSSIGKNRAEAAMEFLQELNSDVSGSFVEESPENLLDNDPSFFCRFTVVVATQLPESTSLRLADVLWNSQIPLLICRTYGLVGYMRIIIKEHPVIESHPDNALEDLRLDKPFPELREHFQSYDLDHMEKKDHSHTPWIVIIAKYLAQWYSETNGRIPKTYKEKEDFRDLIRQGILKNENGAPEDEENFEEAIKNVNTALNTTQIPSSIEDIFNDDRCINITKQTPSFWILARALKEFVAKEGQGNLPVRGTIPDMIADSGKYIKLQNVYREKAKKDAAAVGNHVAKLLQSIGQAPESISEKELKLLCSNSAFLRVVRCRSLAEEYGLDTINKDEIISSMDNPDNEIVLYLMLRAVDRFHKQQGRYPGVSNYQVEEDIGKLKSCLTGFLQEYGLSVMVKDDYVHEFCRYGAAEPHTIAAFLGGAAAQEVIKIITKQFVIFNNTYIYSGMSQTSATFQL
As to the kind of experiment: Inhibition of NAE (unknown origin) mediated neddylation assessed as decrease in NEDD8-Ubcl2 adduct formation incubated for 2 hrs in presence of L-glutathione and ATP by HTRF assay. The test is classed as protein-complex assay. On the technique in general: Time-resolved FRET reads energy transfer from a long-lived donor to a nearby acceptor.

Test [2] has as its system HCT-116. Nature of the test: Antiproliferative activity against human HCT-116 cells assessed as cell growth inhibition by sulforhodamine B assay. Type of test: functional, cell-based. A general note: In SRB staining, fixed cells bind dye roughly in proportion to their protein.
In test [3] the target is Voltage-gated inwardly rectifying potassium channel KCNH2 (Homo sapiens, UniProt Q12809). Nature of the test: Inhibition of hERG channel. Type of test: toxicity.
Test [4] concerns the target T1, NEDD8 activating enzyme. Nature of the test: Inhibition of NAE (unknown origin). Type of test: protein-complex assay.
The target in test [5] is T1, NEDD8 activating enzyme. Nature of the test: Inhibition of NAE in human HCT-116 cells incubated for 1 hr by Western blot analysis. Type of test: cell-based. Background: In western blotting, separated proteins are transferred to a membrane and probed.

Voltage-gated inwardly rectifying potassium channel KCNH2, sequence (Q12809 whole entry): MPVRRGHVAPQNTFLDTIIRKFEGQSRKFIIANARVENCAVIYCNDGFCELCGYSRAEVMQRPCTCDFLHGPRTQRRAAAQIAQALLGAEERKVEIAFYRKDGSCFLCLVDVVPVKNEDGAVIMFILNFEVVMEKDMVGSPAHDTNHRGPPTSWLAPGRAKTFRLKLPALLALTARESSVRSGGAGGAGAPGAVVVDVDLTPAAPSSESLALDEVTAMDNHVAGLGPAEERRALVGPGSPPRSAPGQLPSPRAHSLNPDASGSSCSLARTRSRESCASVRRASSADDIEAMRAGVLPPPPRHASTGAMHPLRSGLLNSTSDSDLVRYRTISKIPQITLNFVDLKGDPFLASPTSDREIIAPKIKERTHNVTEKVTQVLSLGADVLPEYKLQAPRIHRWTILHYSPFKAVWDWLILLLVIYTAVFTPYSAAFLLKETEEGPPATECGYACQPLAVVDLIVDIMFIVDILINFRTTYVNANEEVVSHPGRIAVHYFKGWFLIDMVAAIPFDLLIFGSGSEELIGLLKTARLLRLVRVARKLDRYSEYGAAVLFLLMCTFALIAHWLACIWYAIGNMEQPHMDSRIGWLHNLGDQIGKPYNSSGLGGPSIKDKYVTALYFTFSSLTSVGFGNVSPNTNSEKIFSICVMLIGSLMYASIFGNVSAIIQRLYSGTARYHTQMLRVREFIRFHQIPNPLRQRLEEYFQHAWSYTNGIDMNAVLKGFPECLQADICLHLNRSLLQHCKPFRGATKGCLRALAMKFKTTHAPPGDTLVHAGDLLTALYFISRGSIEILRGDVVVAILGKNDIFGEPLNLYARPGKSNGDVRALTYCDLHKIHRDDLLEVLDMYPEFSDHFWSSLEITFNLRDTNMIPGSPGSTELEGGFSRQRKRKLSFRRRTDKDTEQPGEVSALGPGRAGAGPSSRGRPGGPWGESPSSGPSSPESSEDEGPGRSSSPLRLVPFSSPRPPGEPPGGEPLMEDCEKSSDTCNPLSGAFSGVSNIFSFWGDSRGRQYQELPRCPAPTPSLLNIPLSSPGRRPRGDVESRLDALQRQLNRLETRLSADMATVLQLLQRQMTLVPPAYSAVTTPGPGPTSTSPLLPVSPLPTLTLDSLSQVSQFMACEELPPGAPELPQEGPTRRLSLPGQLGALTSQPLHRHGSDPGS

On to `NS(=O)(=O)OC[C@@H]1C[C@@H](n2nnc3c(NCc4ccccc4F)ncnc32)C[C@@H]1O`, for which the IC50 in test [1] turned out to be 6.11 nM; in test [2], 3860 nM.

Consider `NS(=O)(=O)OC[C@@H]1C[C@@H](n2nnc3c(N[C@H]4CC5(CCNCC5)c5ccccc54)ncnc32)C[C@@H]1O`, for which, in test [1], the IC50 was 66.9 nM.

Take `NS(=O)(=O)OC[C@@H]1C[C@@H](n2nnc3c(NC4CCCC4)ncnc32)C[C@@H]1O`: the IC50 in test [1] is over 10000 nM.

For `NS(=O)(=O)OC[C@@H]1C[C@@H](n2nnc3c(NCc4cccs4)ncnc32)C[C@@H]1O`, the IC50 is 15.9 nM in test [1] and over 10000 nM in test [2].

Take `COCC(=O)N[C@H]1Cc2ccccc2[C@H]1Nc1ncnc2c1nnn2[C@@H]1C[C@@H](COS(N)(=O)=O)[C@@H](O)C1`: in test [1], the 50% inhibitory concentration (IC50) stood at 170 nM.

On to `NS(=O)(=O)OC[C@@H]1C[C@@H](n2nnc3c(NCCc4ccccc4)ncnc32)C[C@@H]1O`, for which the IC50 in test [1] turned out to be 81.8 nM.

As to `NS(=O)(=O)OC[C@@H]1C[C@@H](n2nnc3c(NCCc4cccs4)ncnc32)C[C@@H]1O`, the IC50 in test [1] amounted to 107 nM.

With `COCC(=O)N[C@@H]1Cc2ccccc2[C@H]1Nc1ncnc2c1nnn2[C@@H]1C[C@@H](COS(N)(=O)=O)[C@@H](O)C1`, the IC50 in test [1] was over 10000 nM.

`NS(=O)(=O)OC[C@@H]1C[C@@H](n2nnc3c(N[C@H]4CC5(CCN(C(=O)OC(C(F)(F)F)C(F)(F)F)CC5)c5ccccc54)ncnc32)C[C@@H]1O`: the IC50 in test [1] was 21.1 nM.

Regarding `COCCO[C@H]1Cc2ccccc2[C@H]1Nc1ncnc2c1nnn2[C@@H]1C[C@@H](COS(N)(=O)=O)[C@@H](O)C1`, the IC50 stood at 3.56 nM in test [1] and 70.2 nM in test [2].

For the molecule `COCC(=O)N1CCC2(CC1)C[C@H](Nc1ncnc3c1nnn3[C@@H]1C[C@@H](COS(N)(=O)=O)[C@@H](O)C1)c1ccccc12`, the IC50 in test [1] came to 5.77 nM; in test [2], 1420 nM.

In the case of `NS(=O)(=O)OC[C@@H]1C[C@@H](n2nnc3c(NCc4ccco4)ncnc32)C[C@@H]1O`, the IC50 in test [1] stood at 30.6 nM.

Turning to `CC(C)(C)OC(=O)N1CCC2(CC1)C[C@H](Nc1ncnc3c1nnn3[C@@H]1C[C@@H](COS(N)(=O)=O)[C@@H](O)C1)c1ccccc12`, the values for the IC50 in test [1], in test [2] and in test [3] were 9.76 nM, 94.4 nM and over 40000 nM, respectively.

For `CN(C)[C@H]1Cc2ccccc2[C@H]1Nc1ncnc2c1nnn2[C@@H]1C[C@@H](COS(N)(=O)=O)[C@@H](O)C1`, the IC50 in test [1] came out at 207 nM.

As to `NS(=O)(=O)OC[C@@H]1C[C@@H](n2nnc3c(N[C@H]4CC5(CCN(C(=O)O[C@@H]6CCOC6)CC5)c5ccccc54)ncnc32)C[C@@H]1O`, the IC50 stood at 0.57 nM in test [1] and 110 nM in test [2].

`COC(=O)[C@H]1C=C[C@@H](Nc2ncnc3c2nnn3[C@@H]2C[C@@H](COS(N)(=O)=O)[C@@H](O)C2)C1`: the IC50 in test [1] stood at 80.9 nM.

Turning to `NS(=O)(=O)OC[C@@H]1C[C@@H](n2nnc3c(Nn4ccc5ccccc54)ncnc32)C[C@@H]1O`, in test [1], the IC50 is over 10000 nM.

Regarding `NS(=O)(=O)OC[C@@H]1C[C@@H](n2nnc3c(N[C@H]4CC5(CCN(C(=O)OCCN6CCOCC6)CC5)c5ccccc54)ncnc32)C[C@@H]1O`, the IC50 in test [1] was 9.98 nM; in test [2], 338 nM.

In test [4], `NS(=O)(=O)OC[C@H]1O[C@@H](n2cnc3c(N[C@H]4CCc5ccccc54)ncnc32)[C@H](O)[C@@H]1O` registered an IC50 of 10 nM.

In the case of `CC(C)OC(=O)N1CCC2(CC1)C[C@H](Nc1ncnc3c1nnn3[C@@H]1C[C@@H](COS(N)(=O)=O)[C@@H](O)C1)c1ccccc12`, the IC50 in test [1] was found to be 4.2 nM; in test [2], 121 nM.

For `CCOC(=O)N1CCC2(CC1)C[C@H](Nc1ncnc3c1nnn3[C@@H]1C[C@@H](COS(N)(=O)=O)[C@@H](O)C1)c1ccccc12`, the IC50 in test [1] was 2.23 nM; in test [2], 102 nM.

Turning to `CC(C)(C)NC(=O)N1CCC2(CC1)C[C@H](Nc1ncnc3c1nnn3[C@@H]1C[C@@H](COS(N)(=O)=O)[C@@H](O)C1)c1ccccc12`, the IC50 in test [1] stood at 0.02 nM; in test [2] it was 151 nM.

In the case of `NS(=O)(=O)OC[C@@H]1C[C@@H](n2nnc3c(N[C@H]4CCc5ccccc54)ncnc32)C[C@@H]1O`, the IC50 was 0.21 nM in test [1], 43.2 nM in test [2] and over 40000 nM in test [3].

As for `NS(=O)(=O)OC[C@@H]1C[C@@H](n2nnc3c(N[C@H]4CC5(CCN(C(=O)OC(CO)CO)CC5)c5ccccc54)ncnc32)C[C@@H]1O`, the IC50 in test [1] stood at 120 nM.

As to `NS(=O)(=O)OC[C@@H]1C[C@@H](Nc2ncnc(N[C@H]3CCc4ccccc43)c2F)C[C@@H]1O`, the IC50 in test [1] amounted to 219 nM.

For `NS(=O)(=O)OC[C@@H]1C[C@@H](n2ncc3c(N[C@H]4CCc5ccccc54)ccnc32)C[C@@H]1O`, the IC50 in test [1] was over 10000 nM.

For `NS(=O)(=O)OC[C@@H]1C[C@@H](n2nnc3c(Nc4cnc5ccccn45)ncnc32)C[C@@H]1O`, in test [1], the IC50 is over 10000 nM.

As for `NS(=O)(=O)OC[C@@H]1C[C@@H](n2nnc3c(N[C@H]4CC5(CCN(C(=O)OCCF)CC5)c5ccccc54)ncnc32)C[C@@H]1O`, the IC50 in test [1] worked out at 6 nM; in test [2], 104 nM.

In the case of `CCOc1cccc(F)c1C#Cc1cn([C@@H]2O[C@H](COS(N)(=O)=O)[C@@H](O)[C@H]2O)c2ncnc(N)c12`, the IC50 in test [4] was found to be 1 nM; in test [5], 8 nM.

As to `CN1CCC2(CC1)C[C@H](Nc1ncnc3c1nnn3[C@@H]1C[C@@H](COS(N)(=O)=O)[C@@H](O)C1)c1ccccc12`, the IC50 in test [1] amounted to 187 nM.

For the molecule `CCCCCCNc1ncnc2c1nnn2[C@@H]1C[C@@H](COS(N)(=O)=O)[C@@H](O)C1`, in test [1], the IC50 came out at 21.1 nM.

As to `NS(=O)(=O)OC[C@@H]1C[C@@H](n2nnc3c(Nc4n[nH]c5ccccc45)ncnc32)C[C@@H]1O`, the IC50 in test [1] is over 10000 nM.

As to `NS(=O)(=O)OC[C@@H]1C[C@@H](n2nnc3c(N[C@@H]4c5ccccc5C[C@@H]4O)ncnc32)C[C@@H]1O`, the IC50 was 2.28 nM in test [1], 38.8 nM in test [2] and over 40000 nM in test [3].

With `NS(=O)(=O)OC[C@@H]1C[C@@H](n2nnc3c(NCCCc4ccccc4)ncnc32)C[C@@H]1O`, the IC50 in test [1] stood at 149 nM.

As a reminder, the IC50 is the concentration that inhibits the measured activity by half.
